Data as given in US5021427A, “Novel pyrrolizidine alkaloid” (The Board of Regents, The University of Texas System, priority 1988, dated 1991).
Where two headings read alike, the source gives them in different places.

Columns and labels:
[1] = target: T1, amyloglucosidase (Aspergillus niger, UniProt P69328); experiment: amyloglucosidase (alpha-glucosidase) inhibition, p-nitrophenyl-alpha-D-glucoside substrate; assay type: biochemical
T1 construct: purchased Sigma Chemical Company

[2] = system: beta-glucosidase; experiment: beta-glucosidase inhibition, p-nitrophenyl-glycoside substrate; assay type: biochemical, almonds
[3] = system: alpha-galactosidase; experiment: alpha-galactosidase inhibition; assay type: biochemical, Aspergillus niger
[4] = system: beta-galactosidase; experiment: beta-galactosidase inhibition; assay type: biochemical, bovine
[5] = target: T2, alpha-mannosidase (Canavalia ensiformis, UniProt C0HJB3); experiment: alpha-mannosidase inhibition; assay type: biochemical, jack bean
T2 construct: purchased Sigma Chemical Company

[6] = target: Beta-Mannosidase (Aspergillus niger, UniProt Q9UUZ3); experiment: beta-mannosidase inhibition; assay type: biochemical
[7] = target: T3, intestinal sucrase (Homo sapiens, UniProt P14410); experiment: intestinal sucrase activity, sucrose as substrate; assay type: biochemical
T3 construct: from tissue
Procedure: (§1) (B) Sucrase and Maltase. Intestinal sucrase and maltase activities were determined by measuring the formation of reducing sugar from sucrose and maltitol, respectively. The reaction mixture contained 7.5 micromoles sodium citrate buffer, pH 6, 9 micromoles of substrate (sucrose or maltitol), and enzyme, in a final volume of 0.3 ml. […] For both enzymes, activity was proportional with time, and amount of protein. As described above for the arylglycosidases, inhibitors were preincubated with enzyme prior to the addition of substrate.

[8] = target: intestinal maltase; experiment: intestinal maltase activity, maltitol as substrate; assay type: biochemical
Procedure: as §1

[9] = target: glucosidase I; experiment: processing glucosidase I, release of [3H]glucose from Glc3Man9GlcNAc; assay type: biochemical, mung bean
[10] = system: glucosidase II; experiment: processing glucosidase II, release of p-nitrophenol from p-nitrophenyl-alpha-D-glucoside; assay type: biochemical, mung bean
[11] = system: human immunodeficiency virus (HIV-1); experiment: replication of HIV-1 in tissue culture cells; assay type: cell-based
[12] = system: uninfected MDCK cells
Procedure: (§2) The cells then were incubated for 15-120 min with either [2-^3 H]mannose (20 micro Ci/ml) or [4,5-^3 H]leucine (10 micro Ci/ml) to label lipid-linked saccharides and cellular proteins, respectively. At the end of the labeling period, the medium was removed by aspiration, and the monolayers were washed 3 times with PB S. One ml of PBS was added to each well, the cells were dislodged by scraping, and were then quantitatively transferred to reaction tubes. Each well was washed with another 1 ml of PBS and this rinse was also added to the initial tube. […] For the incorporation of radiolabel into protein, cells were extracted with TCA at a final concentration of 20% in the presence of 500 micro g of bovine serum albumin. Following an overnight incubation at 4° C., precipitated protein was isolated by centrifugation. The precipitate was washed twice with 5% TCA, and once with absolute methanol, and then digested with Pronase as described above. Pronase-released radioactivity was measured by liquid scintillation counting.
(§3) Uninfected MDCK cells were grown in 6well Limbro tissue culture dishes.
(§4) confluency, australine was added to some wells to the final concentration
(§5) After a 2 hours incubation to allow the alkaloid to take
At the times shown, the medium
(§6) was removed by aspiration, and the monolayers were washed three times wit
(§7) PBS. The cells were released from the wells by scraping, placed in tubes,
(§8) and extracted with 20% TCA as described above. Radioactivity incorporated
(§9) into total cellular protein was determined after Pronase digestion by
liquid scintillation counting.

[13] = system: uninfected MDCK cells; details: 50 micro g/ml, 60 min
Procedure: (§10) The cells then were incubated for 15-120 min with either [2-^3 H]mannose (20 micro Ci/ml) or [4,5-^3 H]leucine (10 micro Ci/ml) to label lipid-linked saccharides and cellular proteins, respectively. At the end of the labeling period, the medium was removed by aspiration, and the monolayers were washed 3 times with PB S. One ml of PBS was added to each well, the cells were dislodged by scraping, and were then quantitatively transferred to reaction tubes. Each well was washed with another 1 ml of PBS and this rinse was also added to the initial tube. Radioactivity incorporated into lipid-linked monosaccharides and oligosaccharides was determined after extraction with chloroform:methanol:water (1:1:1) and chloroform:methanol:water (10:10:3), respectively, as previously described (60).
(§11) Uninfected MDCK cells were grown in 6well Limbro tissue culture dishes. A
as §4
(§12) listed above. After a 2 hour incubation to allow the alkaloid to take
(§13) effect, [^3 H]mannose was added to a final concentration of 20 micro
(§14) Ci/ml, and the incubations were continued. At the times shown, the medium
as §6, §7
(§15) then sequentially extracted with chloroform:methanol:water (1:1:1) for
(§16) lipidlinked monosaccharides, and chloroform:methanol:water (10:10:3) for
(§17) lipidlinked oligosaccharides. The total radioactivity incorporated into
(§18) the lipidlinked sugars was determined by liquid scintillation counting.

[14] = system: uninfected MDCK cells; experiment: incorporation of [3H]mannose into lipid-linked saccharides
Procedure: as §10, §11, §4, §12, §13, §14, §6, §7, §15, §16, §17, §18

[15] = system: uninfected MDCK cells; experiment: incorporation of [3H]leucine into protein (protein synthesis)
Procedure: as §2, §3, §4, §5
At the times shown, the medium
as §6, §7, §8, §9
liquid scintillation counting.

[16] = system: influenza virus glycoproteins in infected MDCK cells; experiment: glycoprotein processing in influenza virus-infected MDCK cells (Endo H-sensitive oligosaccharides); details: mannose-labeled glycopeptide, printed as 10 micro g/ml
[17] = system: glycosidases; experiment: glycosidase inhibitory activity against generally available glycosidases; assay type: biochemical
Text: GENERAL EX[…]. The alkaloids were monitored for purity by tlc on 0.25 mm silica gel plates developed with CHCl3 :MeOH:HN4 OH:H2 O (70:26:2:2) and detected by spraying with acetic anhydride followed by Ehrlich's reagent (21). Homogeneity was also checked by gc of the TMS derivatives, prepared by treatment with MSTFA in pyridine, on a Hewlett-Packard 5830 instrument equipped with a flame-ionization detector, on-column injector, and a 30-m×0.32-mm i.d. SE-30 fused silica column. Low resolution electron and ammonia chemical ionization mass spectra were obtained on a VG Micromass 7070 mass spectrometer; high resolution mass measurements were determined on the same instrument. Optical rotations were measured in a 1-dm cell on a Perkin-Elmer 241 automatic polarimeter. Nuclear magnetic resonance spectra were determined in D2 O on a Nicolet NTC 200FT spectrometer with software package at 200 MHz (^1 H) and at 50.3 MHz (^13 C) using 3-(trimethylsilyl)-1-propanesulfonic acid (TSP) as an internal standard. Multiplicities for ^13 C signals were determined by application of the carbon attached proton test (CAPT) sequence. Preparative centrifugal tlc was performed on a Chromatotron Model 7924 (Harrison Research, Palo Alto, Calif.). Enzyme assay methods have been previously described (67), Melting points are uncorrected.

[18] = system: influenza virus glycoproteins in infected MDCK cells; details: cited from earlier work
[19] = concentrations up to 500 micro M

T1 sequence (P69328 25-640): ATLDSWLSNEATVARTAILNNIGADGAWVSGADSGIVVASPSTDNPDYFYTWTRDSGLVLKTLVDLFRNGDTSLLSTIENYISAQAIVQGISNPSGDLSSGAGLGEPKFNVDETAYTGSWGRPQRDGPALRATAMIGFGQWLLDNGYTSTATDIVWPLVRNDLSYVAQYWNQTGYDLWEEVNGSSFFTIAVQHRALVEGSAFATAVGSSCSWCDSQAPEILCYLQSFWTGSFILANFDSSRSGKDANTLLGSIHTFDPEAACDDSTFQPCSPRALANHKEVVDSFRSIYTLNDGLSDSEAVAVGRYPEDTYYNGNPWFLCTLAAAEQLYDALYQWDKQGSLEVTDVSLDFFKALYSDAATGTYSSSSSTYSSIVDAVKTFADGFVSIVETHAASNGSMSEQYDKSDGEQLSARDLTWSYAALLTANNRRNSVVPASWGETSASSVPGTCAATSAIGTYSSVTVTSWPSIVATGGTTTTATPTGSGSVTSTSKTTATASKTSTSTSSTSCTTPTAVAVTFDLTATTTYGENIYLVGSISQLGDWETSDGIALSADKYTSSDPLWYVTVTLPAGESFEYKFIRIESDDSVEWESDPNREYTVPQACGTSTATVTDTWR
Beta-Mannosidase, sequence (Q9UUZ3 22-931): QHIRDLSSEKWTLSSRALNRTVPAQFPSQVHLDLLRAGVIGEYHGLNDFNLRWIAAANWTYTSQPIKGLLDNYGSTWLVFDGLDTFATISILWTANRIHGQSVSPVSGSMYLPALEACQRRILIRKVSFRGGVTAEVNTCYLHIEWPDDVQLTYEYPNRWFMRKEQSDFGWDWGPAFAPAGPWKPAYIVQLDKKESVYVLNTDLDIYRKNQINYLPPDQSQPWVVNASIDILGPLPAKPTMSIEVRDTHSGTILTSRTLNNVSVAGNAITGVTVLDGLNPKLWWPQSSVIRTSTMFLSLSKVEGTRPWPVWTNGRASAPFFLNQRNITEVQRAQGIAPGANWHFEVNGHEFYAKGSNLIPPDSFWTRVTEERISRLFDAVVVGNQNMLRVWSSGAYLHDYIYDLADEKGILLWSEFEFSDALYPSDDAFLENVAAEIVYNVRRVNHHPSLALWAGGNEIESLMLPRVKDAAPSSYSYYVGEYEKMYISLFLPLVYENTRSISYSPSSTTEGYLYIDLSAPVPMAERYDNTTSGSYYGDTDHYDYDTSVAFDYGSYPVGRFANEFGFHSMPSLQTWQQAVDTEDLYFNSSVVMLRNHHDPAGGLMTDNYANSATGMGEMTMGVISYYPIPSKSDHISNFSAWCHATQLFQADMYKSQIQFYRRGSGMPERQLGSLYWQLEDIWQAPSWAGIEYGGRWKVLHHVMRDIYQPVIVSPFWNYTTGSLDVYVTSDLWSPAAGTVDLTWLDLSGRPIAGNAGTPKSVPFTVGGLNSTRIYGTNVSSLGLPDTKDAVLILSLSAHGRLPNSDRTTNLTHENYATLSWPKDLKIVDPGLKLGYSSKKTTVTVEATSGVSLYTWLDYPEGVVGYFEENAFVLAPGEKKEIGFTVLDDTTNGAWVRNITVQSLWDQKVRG
T2 sequence (C0HJB3 whole entry): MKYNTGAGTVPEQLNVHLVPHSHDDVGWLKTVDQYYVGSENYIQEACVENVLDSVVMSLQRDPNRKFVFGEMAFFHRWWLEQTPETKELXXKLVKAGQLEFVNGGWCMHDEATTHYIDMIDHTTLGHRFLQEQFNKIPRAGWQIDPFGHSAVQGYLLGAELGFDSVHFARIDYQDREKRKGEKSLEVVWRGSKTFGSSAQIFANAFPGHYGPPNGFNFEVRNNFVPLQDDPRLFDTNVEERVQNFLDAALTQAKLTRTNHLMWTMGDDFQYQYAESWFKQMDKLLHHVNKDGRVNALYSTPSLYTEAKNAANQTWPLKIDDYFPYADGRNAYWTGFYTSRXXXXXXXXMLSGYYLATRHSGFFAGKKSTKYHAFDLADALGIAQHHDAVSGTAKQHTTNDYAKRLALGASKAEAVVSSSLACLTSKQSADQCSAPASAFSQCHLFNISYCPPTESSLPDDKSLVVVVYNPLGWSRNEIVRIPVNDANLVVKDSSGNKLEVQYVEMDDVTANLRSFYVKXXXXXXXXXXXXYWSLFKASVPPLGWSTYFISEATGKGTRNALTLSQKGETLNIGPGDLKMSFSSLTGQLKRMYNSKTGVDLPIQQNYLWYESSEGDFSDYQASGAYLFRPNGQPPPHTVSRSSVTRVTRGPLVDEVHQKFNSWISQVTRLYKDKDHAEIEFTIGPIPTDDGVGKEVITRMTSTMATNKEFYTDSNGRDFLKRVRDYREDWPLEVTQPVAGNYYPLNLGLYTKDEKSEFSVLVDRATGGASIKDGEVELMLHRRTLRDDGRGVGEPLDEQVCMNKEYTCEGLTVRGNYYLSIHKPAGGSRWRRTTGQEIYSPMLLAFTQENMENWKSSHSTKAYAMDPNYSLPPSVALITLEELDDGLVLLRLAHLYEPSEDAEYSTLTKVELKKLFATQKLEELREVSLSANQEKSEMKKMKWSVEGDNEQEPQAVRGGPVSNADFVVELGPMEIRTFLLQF
T3 sequence (P14410 whole entry): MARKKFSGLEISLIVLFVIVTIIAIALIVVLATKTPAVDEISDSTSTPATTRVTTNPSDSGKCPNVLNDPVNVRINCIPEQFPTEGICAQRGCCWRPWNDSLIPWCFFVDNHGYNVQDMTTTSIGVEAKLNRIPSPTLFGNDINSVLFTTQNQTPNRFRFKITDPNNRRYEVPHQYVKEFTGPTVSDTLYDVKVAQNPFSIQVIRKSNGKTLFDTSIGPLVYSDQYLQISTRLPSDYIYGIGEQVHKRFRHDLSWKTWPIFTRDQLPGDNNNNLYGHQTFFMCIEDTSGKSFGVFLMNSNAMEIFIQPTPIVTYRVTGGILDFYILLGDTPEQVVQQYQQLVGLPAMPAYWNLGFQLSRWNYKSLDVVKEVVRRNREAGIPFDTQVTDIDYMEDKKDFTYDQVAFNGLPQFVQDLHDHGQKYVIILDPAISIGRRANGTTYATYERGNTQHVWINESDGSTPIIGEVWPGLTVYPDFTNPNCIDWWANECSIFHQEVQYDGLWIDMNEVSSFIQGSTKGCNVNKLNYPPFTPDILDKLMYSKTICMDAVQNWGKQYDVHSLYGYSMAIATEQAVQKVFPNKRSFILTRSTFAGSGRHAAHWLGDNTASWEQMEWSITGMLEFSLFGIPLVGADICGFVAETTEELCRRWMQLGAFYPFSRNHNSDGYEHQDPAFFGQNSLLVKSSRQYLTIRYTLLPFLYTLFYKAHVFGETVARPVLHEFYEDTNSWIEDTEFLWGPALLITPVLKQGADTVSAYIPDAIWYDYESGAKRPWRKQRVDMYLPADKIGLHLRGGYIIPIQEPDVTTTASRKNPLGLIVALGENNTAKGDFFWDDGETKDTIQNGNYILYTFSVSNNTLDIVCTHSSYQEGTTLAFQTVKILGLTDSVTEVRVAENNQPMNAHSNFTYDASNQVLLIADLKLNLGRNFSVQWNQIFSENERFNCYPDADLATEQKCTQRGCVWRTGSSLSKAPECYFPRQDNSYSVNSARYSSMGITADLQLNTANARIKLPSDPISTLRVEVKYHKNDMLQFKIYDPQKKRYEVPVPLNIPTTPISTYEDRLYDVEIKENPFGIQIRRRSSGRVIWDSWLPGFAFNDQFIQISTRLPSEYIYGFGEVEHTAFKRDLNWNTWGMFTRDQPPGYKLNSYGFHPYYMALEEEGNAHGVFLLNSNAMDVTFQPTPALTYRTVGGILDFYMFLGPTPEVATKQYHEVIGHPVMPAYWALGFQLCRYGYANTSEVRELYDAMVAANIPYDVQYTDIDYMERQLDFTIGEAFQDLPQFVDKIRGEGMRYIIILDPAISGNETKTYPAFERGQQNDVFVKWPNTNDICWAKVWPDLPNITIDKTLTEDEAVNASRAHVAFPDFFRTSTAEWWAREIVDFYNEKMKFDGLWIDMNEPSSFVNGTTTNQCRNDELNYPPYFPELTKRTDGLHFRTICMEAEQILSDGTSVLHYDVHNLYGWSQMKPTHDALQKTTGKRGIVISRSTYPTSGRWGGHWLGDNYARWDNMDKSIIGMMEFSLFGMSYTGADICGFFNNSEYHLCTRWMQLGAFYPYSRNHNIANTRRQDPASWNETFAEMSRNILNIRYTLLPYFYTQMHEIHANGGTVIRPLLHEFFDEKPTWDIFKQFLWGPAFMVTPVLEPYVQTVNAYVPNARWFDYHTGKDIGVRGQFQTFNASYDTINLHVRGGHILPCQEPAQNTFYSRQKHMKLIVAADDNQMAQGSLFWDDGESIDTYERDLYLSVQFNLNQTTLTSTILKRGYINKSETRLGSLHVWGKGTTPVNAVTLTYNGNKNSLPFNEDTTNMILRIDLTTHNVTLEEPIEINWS

OC[C@@H]1[C@@H](O)[C@H](O)[C@H]2[C@@H](O)CCN21 [australine, (1R, 2R, 3R, 7S, 7aR)-3-hydroxymethyl-1,2,7-trihydroxypyrrolizidine]
Ki ([1]; Example 2, p-nitrophenyl-alpha-D-glucoside substrate, read-out: apparent Ki): 5.8 µM | type of inhibition ([1]; Lineweaver-Burk, 0.5 and 1 micro g/ml australine): competitive | inhibition of beta-glucosidase [2]: No significant inhibition | inhibition of beta-glucosidase activity ([2]; at 66 micro M): less than 5% | inhibition of alpha-galactosidase [3]: No significant inhibition | effect on alpha-galactosidase [3, 19]: no apparent effect | inhibition of beta-galactosidase [4]: No significant inhibition | effect on beta-galactosidase [4, 19]: no apparent effect | inhibition of alpha-mannosidase [5]: No significant inhibition | effect on alpha-mannosidase [5, 19]: no apparent effect | inhibition of beta-mannosidase [6]: No significant inhibition | effect on beta-mannosidase [6, 19]: no apparent effect | Ki [7]: ~28 µM | Ki [8]: ~35 µM | Ki [9]: ~20 µM | activity against glucosidase II [10, 19]: no activity | inhibition of HIV-1 replication [11]: inhibited the growth of the virus, but this alkaloid was not as effective as an inhibitor as was castanospermine | Radioactivity incorporated into protein ([12]; 50 micro ug/ml, 30 min): 9252 cpm | Radioactivity incorporated into protein ([12]; 100 micro ug/ml, 30 min): 8304 cpm | Radioactivity incorporated into protein ([12]; 100 micro ug/ml, 60 min): 1588 cpm | Radioactivity incorporated into protein ([12]; 100 micro ug/ml, 90 min): 25636 cpm | Radioactivity incorporated into protein ([12]; 100 micro ug/ml, 120 min): 32008 cpm | Radioactivity, Lipid-linked oligosaccharides [13]: 1077 cpm | incorporation of [3H]mannose into lipid-linked oligosaccharide ([14]; 50-500 micro g/ml): appeared to be stimulated | Radioactivity, Lipid-linked monosaccharides ([14]; 50 micro g/ml, 15 min): 97 cpm | Radioactivity, Lipid-linked oligosaccharides ([14]; 50 micro g/ml, 15 min): 1672 cpm | Radioactivity, Lipid-linked monosaccharides ([14]; 50 micro g/ml, 30 min): 122 cpm | Radioactivity, Lipid-linked oligosaccharides ([14]; 50 micro g/ml, 30 min): 5021 cpm | Radioactivity, Lipid-linked monosaccharides ([14]; 50 micro g/ml, 60 min): 229 cpm | Radioactivity, Lipid-linked monosaccharides ([14]; 100 micro g/ml, 15 min): 101 cpm | Radioactivity, Lipid-linked oligosaccharides ([14]; 100 micro g/ml, 15 min): 2336 cpm | Radioactivity, Lipid-linked monosaccharides ([14]; 100 micro g/ml, 30 min): 151 cpm | Radioactivity, Lipid-linked oligosaccharides ([14]; 100 micro g/ml, 30 min): 5335 cpm | Radioactivity, Lipid-linked monosaccharides ([14]; 100 micro g/ml, 60 min): 244 cpm | Radioactivity, Lipid-linked oligosaccharides ([14]; 100 micro g/ml, 60 min): 1104 cpm | Radioactivity, Lipid-linked monosaccharides ([14]; 250 micro g/ml, 15 min): 107 cpm | Radioactivity, Lipid-linked oligosaccharides ([14]; 250 micro g/ml, 15 min): 2073 cpm | Radioactivity, Lipid-linked monosaccharides ([14]; 250 micro g/ml, 30 min): 115 cpm | Radioactivity, Lipid-linked oligosaccharides ([14]; 250 micro g/ml, 30 min): 5661 cpm | Radioactivity, Lipid-linked monosaccharides ([14]; 250 micro g/ml, 60 min): 212 cpm | Radioactivity, Lipid-linked oligosaccharides ([14]; 250 micro g/ml, 60 min): 995 cpm | Radioactivity, Lipid-linked monosaccharides ([14]; 500 micro g/ml, 15 min): 96 cpm | Radioactivity, Lipid-linked oligosaccharides ([14]; 500 micro g/ml, 15 min): 2957 cpm | Radioactivity, Lipid-linked monosaccharides ([14]; 500 micro g/ml, 30 min): 178 cpm | Radioactivity, Lipid-linked oligosaccharides ([14]; 500 micro g/ml, 30 min): 6167 cpm | Radioactivity, Lipid-linked monosaccharides ([14]; 500 micro g/ml, 60 min): 236 cpm | Radioactivity, Lipid-linked oligosaccharides ([14]; 500 micro g/ml, 60 min): 1108 cpm | Radioactivity incorporated into protein ([15]; 50 micro ug/ml, 60 min): 16572 cpm | Radioactivity incorporated into protein ([15]; 50 micro ug/ml, 90 min): 23341 cpm | Radioactivity incorporated into protein ([15]; 50 micro ug/ml, 120 min): 33704 cpm | effect on overall rate of protein synthesis ([15]; 50 to 500 micro g/ml, times up to 120 min): little effect | Radioactivity incorporated into protein ([15]; 250 micro ug/ml, 30 min): 8064 cpm | Radioactivity incorporated into protein ([15]; 250 micro ug/ml, 60 min): 13604 cpm | Radioactivity incorporated into protein ([15]; 250 micro ug/ml, 90 min): 27776 cpm | Radioactivity incorporated into protein ([15]; 250 micro ug/ml, 120 min): 36140 cpm | Radioactivity incorporated into protein ([15]; 500 micro ug/ml, 30 min): 9124 cpm | Radioactivity incorporated into protein ([15]; 500 micro ug/ml, 60 min): 15648 cpm | Radioactivity incorporated into protein ([15]; 500 micro ug/ml, 90 min): 26060 cpm | Radioactivity incorporated into protein ([15]; 500 micro ug/ml, 120 min): 32704 cpm | Endo H-released proportion [16]: 55%

OC[C@H]1NCC[C@@H](O)[C@@H]1O [fagomine, 1,2,5-trideoxy-1,5-imino-D-arabino-hexitol, reference compound]
glycosidase inhibitory activity against alpha-glucosidase ([1]; commercially available enzyme): No significant glycosidase inhibitory activity | inhibition of beta-glucosidase [2]: No significant glycosidase inhibitory activity | inhibition of alpha-galactosidase [3]: No significant glycosidase inhibitory activity | inhibition of beta-galactosidase [4]: No significant glycosidase inhibitory activity | inhibition of alpha-mannosidase [5]: No significant glycosidase inhibitory activity | inhibition of beta-mannosidase [6]: No significant glycosidase inhibitory activity | glycosidase inhibitory activity [17]: no inhibitory activity

O[C@H]1[C@H](O)[C@@H](O)CN2CC[C@H](O)[C@H]12 [castanospermine, reference compound]
Ki ([1]; Example 1, read-out: Ki): 7.9 µM | inhibition of beta-glucosidase [2]: inhibited | IC50 ([2]; read-out: level which inhibited 50% of the beta-glucosidase activity): 66 µM | Ki [7]: < 1 µM | Ki [8]: < 1 µM | Ki [9]: ~1 µM | inhibition of glucosidase II [10]: inhibited by micromolar amounts | concentration producing the same degree of inhibition (increased proportion of Endo H-susceptible glycopeptides) as 500 micro g/ml australine [18]: 10 micro g/ml

OC[C@@H]1[C@@H]2[C@H](O)CCN2C[C@H]1O [rosmarinecine]
glycosidase inhibitory activity [17]: lack glycosidase inhibitory activity
